# Test results reported in patent US20080051453A1, “Sorbic acid analog co-crystals” (priority 2006, published 2008).
# Assay: Pharmacokinetic parameters in male cynomolgus monkeys after nasogastric gavage (suspension) or oral (tablet) administration
# Format: in vivo
# Conditions: for mean AUC relative to the suspension formulation / mean Cmax relative to the suspension formulation: oral, male cynomolgus monkeys, N=4/group
# Source text: Pharmacokinetic Parameters and Summary Statistics for Male Cynomolgus Monkeys Following Nasogastric Gavage (2% Pluronic F108 in OraPlus Suspension) or Oral (Tablet Formulations) Administration (N=4/group)
# [1] = "in situ" sorbic acid cocrystal/physical blend tablet (first mention, % CV~50-60)
# [2] = tablet printed again as "in situ" sorbic acid cocrystal/physical blend tablet (second mention, % CV~30-45)
Molecule,"mean AUC relative to the suspension formulation of Example 4 (cynomolgus monkey, in vivo, po)","mean Cmax relative to the suspension formulation of Example 4 (cynomolgus monkey, in vivo, po)",mean AUC relative to the suspension formulation [1],mean Cmax relative to the suspension formulation [1],mean AUC relative to the suspension formulation [2],mean Cmax relative to the suspension formulation [2]
"CC(=O)Nc1nc2c(Oc3cc(-c4ccc(C(F)(F)F)cc4)ncn3)cccc2s1 [Example 4, N-(4-(6-(4-(trifluoromethyl)phenyl)pyrimidin-4-yloxy)benzo[d]thiazol-2-yl)acetamide freebase]",17-19%,17-19%,,,,
N-(4-(6-(4-(trifluoromethyl)phenyl)pyrimidin-4-yloxy)benzo[d]thiazol-2-yl)acetamide sorbic acid co-crystal [Example 5],,,52-63%,52-63%,approximately 65%,approximately 65%
